Laboratory results as given in patent US20250122183A1 (Pfizer Inc., priority 2023, published 2025).

How the values were obtained:
Format in all cases: biochemical
KAT6A Full length enzyme = KAT6A Full length enzyme (Homo sapiens (Human), UniProt Q92794); experiment: KAT6A assay (SAMDI-MS acetylation of H3 1-21 peptide); details: Morrison equation fit; replicate number in parentheses; read-out: KAT6A Ki (nM) (replicate number)
KAT5 Full length enzyme = KAT5 Full length enzyme (Homo sapiens (Human), UniProt Q92993); experiment: KAT5 assay (SAMDI-MS acetylation of H4 1-21 peptide); details: Morrison equation fit; replicate number in parentheses; read-out: KAT5 Ki (nM) (replicate number)
[1] = biological target: KAT7+BRPF1+EAF6+ING5 4 protein complex (Homo sapiens (Human), UniProt O95251); experiment: KAT7 BRPF1 assay (SAMDI-MS acetylation of H3 1-21 peptide); details: Morrison equation fit; replicate number in parentheses
KAT8 Full length enzyme = KAT8 Full length enzyme (Homo sapiens (Human), UniProt Q9H7Z6); experiment: KAT8 assay (SAMDI-MS acetylation of H3 1-21 peptide); details: Morrison equation fit; replicate number in parentheses; read-out: KAT8 Ki (nM) (replicate number)
[2] = biological target: KAT7+JADE1+EAF6+ING5 4 protein complex (Homo sapiens (Human), UniProt O95251); experiment: KAT7 JADE1 assay (SAMDI-MS acetylation of H3 1-21 peptide); details: Morrison equation fit; replicate number in parentheses; read-out: KAT7 JADE1 Ki (nM) (replicate number)
[3] = biological target: KAT7+BRPF2+EAF6+ING5 4 protein complex (Homo sapiens (Human), UniProt O95251); experiment: KAT7 BRPF2 assay (SAMDI-MS acetylation of H3 1-21 peptide); details: Morrison equation fit; replicate number in parentheses; read-out: KAT7 BRPF2 Ki (nM) (replicate number)

KAT5 Full length enzyme, sequence (Q92993 whole entry): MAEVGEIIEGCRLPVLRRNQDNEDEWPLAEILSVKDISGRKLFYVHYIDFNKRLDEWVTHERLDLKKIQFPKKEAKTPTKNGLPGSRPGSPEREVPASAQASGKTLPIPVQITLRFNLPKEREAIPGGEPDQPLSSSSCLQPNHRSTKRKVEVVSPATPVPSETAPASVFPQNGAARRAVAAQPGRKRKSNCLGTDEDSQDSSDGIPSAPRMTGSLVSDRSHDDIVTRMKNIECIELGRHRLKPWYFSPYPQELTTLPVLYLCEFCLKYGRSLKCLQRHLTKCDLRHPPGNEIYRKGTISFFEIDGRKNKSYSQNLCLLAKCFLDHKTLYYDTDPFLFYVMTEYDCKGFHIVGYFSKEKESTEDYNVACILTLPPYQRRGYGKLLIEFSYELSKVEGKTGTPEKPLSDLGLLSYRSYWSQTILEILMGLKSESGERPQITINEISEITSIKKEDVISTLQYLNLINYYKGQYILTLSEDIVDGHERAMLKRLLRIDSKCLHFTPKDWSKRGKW
KAT8 Full length enzyme, sequence (Q9H7Z6 whole entry): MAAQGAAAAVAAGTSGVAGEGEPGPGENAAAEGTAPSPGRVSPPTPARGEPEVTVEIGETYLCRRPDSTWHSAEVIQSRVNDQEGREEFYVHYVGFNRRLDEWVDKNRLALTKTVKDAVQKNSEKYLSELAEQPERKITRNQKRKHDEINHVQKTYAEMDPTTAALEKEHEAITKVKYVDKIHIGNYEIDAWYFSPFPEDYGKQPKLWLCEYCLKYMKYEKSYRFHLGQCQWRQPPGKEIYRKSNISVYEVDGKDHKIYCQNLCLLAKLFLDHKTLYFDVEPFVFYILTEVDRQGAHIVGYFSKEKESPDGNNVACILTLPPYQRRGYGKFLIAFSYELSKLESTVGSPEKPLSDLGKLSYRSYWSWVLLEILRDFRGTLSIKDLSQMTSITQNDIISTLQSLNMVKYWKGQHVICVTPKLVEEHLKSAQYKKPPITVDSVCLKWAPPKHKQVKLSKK
KAT6A Full length enzyme, sequence (Q92794 other isoform, or with tags, fused parts or gaps): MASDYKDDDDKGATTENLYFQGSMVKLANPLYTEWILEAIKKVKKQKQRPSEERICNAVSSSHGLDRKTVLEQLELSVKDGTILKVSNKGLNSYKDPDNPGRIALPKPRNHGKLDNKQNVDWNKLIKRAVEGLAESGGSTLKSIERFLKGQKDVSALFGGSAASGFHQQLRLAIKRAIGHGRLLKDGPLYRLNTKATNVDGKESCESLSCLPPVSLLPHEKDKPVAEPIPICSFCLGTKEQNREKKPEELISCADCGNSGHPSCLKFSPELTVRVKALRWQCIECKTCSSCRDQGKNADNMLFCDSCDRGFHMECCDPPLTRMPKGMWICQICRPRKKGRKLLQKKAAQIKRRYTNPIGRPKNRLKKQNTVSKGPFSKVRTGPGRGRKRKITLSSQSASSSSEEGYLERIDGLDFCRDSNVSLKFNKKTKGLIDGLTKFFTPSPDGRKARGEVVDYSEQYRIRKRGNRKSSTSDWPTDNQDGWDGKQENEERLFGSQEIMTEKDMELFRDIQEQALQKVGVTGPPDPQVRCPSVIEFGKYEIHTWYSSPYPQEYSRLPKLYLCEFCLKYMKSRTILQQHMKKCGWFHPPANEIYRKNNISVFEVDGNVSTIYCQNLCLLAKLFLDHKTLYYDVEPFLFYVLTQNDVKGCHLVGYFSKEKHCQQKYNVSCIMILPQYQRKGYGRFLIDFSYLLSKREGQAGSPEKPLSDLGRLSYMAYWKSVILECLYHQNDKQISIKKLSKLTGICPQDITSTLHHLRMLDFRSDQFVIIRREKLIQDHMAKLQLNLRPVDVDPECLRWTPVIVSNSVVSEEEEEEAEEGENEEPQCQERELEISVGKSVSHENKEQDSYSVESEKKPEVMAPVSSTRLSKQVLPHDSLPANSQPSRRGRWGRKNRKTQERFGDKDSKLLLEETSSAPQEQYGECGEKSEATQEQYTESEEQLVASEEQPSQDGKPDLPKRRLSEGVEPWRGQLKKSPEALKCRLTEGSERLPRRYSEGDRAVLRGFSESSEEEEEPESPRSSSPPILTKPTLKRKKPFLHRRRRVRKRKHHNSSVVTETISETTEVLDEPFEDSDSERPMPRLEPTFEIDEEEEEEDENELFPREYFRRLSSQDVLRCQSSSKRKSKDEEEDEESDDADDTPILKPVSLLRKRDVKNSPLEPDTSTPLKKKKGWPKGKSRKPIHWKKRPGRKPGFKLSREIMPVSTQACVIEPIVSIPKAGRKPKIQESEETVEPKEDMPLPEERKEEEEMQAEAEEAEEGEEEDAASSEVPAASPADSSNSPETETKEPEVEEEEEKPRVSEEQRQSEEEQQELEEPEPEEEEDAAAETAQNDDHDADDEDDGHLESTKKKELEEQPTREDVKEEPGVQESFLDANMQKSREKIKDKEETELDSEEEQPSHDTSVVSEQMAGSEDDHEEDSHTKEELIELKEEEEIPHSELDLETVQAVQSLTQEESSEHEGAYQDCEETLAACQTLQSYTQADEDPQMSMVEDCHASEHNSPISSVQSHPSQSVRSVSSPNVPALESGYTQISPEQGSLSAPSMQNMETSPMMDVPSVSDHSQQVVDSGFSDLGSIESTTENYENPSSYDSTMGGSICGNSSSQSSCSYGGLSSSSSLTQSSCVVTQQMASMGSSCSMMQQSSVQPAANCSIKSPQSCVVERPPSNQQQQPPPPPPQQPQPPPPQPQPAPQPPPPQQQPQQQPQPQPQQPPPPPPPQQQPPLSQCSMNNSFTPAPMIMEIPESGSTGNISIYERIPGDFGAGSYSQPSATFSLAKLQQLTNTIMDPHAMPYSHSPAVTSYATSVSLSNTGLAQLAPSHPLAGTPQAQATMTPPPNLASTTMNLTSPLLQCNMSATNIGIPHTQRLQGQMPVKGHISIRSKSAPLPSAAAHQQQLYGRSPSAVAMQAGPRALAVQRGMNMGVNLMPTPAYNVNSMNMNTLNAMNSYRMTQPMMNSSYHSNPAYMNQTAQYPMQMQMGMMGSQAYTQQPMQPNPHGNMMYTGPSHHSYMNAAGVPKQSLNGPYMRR

| Structure (SMILES) | Ki (KAT6A Full length enzyme) [nM] | Ki (KAT5 Full length enzyme) [nM] | Ki [1] [nM] | Ki (KAT8 Full length enzyme) [nM] | Ki [2] [nM] | Ki [3] [nM] |
| --- | --- | --- | --- | --- | --- | --- |
| COc1cc2c(NS(=O)(=O)c3c(OC)cc(C4CCCN4C)cc3OC)noc2cc1Nc1cc(C2CC2)n[nH]1 (racemic) [Example 154, N-{6-[(3-cyclopropyl-1H-pyrazol-5-yl)amino]-5-methoxy-1,2-benzoxazol-3-yl}-2,6-dimethoxy-4-(1-methylpyrrolidin-2-yl)benzene-1-sulfonamide] | 2 | 88.3 | 7.8 | 2140 | 15.3 |  |
| COc1cccc(OC)c1S(=O)(=O)Nc1noc2cc(Nc3cc[nH]n3)cc(OC)c12 [Example 01, 2,6-Dimethoxy-N-{4-methoxy-6-[(1H-pyrazol-3-yl)amino]-1,2-benzoxazol-3-yl}benzene-1-sulfonamide] | 0.4 | 441 | 37.7 | 455 | 131 | 37 |
| CCc1cc(Nc2cc3onc(NS(=O)(=O)c4c(OC)cccc4OC)c3cc2OC)[nH]n1 [Example 02, N-{6-[(3-ethyl-1H-pyrazol-5-yl)amino]-5-methoxy-1,2-benzoxazol-3-yl}-2,6-dimethoxybenzene-1-sulfonamide] | 1.1 | 305 | 3.5 | 2270 | 19.5 | 4.8 |
| COc1cc2c(NS(=O)(=O)c3c(OC)cccc3OC)noc2cc1Nc1cc[nH]n1 [Example 03, 2,6-Dimethoxy-N-{5-methoxy-6-[(1H-pyrazol-3-yl)amino]-1,2-benzoxazol-3-yl}benzene-1-sulfonamide] | 0.5 | 138 | 40.6 | 861 | 105 | 43.6 |
| COc1cc2c(NS(=O)(=O)c3c(OC)cccc3OC)noc2cc1Nc1ccn(C)n1 [Example 04, 2,6-Dimethoxy-N-{5-methoxy-6-[(1-methyl-1H-pyrazol-3-yl)amino]-1,2-benzoxazol-3-yl}benzene-1-sulfonamide] | 0.7 | 367 | 67.2 | 1230 | 251 | 57.2 |
| COc1cc2c(NS(=O)(=O)c3ccccc3OC)noc2cc1Nc1cc(C)n[nH]1 [Example 06, 2-Methoxy-N-{5-methoxy-6-[(3-methyl-1H-pyrazol-5-yl)amino]-1,2-benzoxazol-3-yl}benzene-1-sulfonamide] | 0.8 | 300 | 47.1 | > 13000 | 148 | 50.5 |
| COc1ccccc1S(=O)(=O)Nc1noc2cc(Nc3cc[nH]n3)cc(OC)c12 [Example 09, 2-methoxy-N-{4-methoxy-6-[(1H-pyrazol-3-yl)amino]-1,2-benzoxazol-3-yl}benzene-1-sulfonamide] | 0.8 | 642 | 51.8 | 1190 | 202 | 90.7 |
| COc1cccc(OC)c1S(=O)(=O)Nc1noc2cc(Nc3ncc[nH]3)cc(OC)c12 [Example 15, N-{6-[(1H-imidazol-2-yl)amino]-4-methoxy-1,2-benzoxazol-3-yl}-2,6-dimethoxybenzene-1-sulfonamide] | 1.2 | 1330 | 67.8 | 1320 | 256 | 100 |
| COc1cc2c(NS(=O)(=O)c3ccccc3OC)noc2cc1Nc1cc[nH]n1 [Example 22, 2-methoxy-N-{5-methoxy-6-[(1H-pyrazol-3-yl)amino]-1,2-benzoxazol-3-yl}benzene-1-sulfonamide] | 0.9 | 488 | 108 | 1700 | 300 | 186 |
| COc1cc2c(NS(=O)(=O)c3c(OC)cccc3OC(C)C)noc2cc1Nc1cc[nH]n1 [Example 32, 2-methoxy-N-{5-methoxy-6-[(1H-pyrazol-3-yl)amino]-1,2-benzoxazol-3-yl}-6-[(propan-2-yl)oxy]benzene-1-sulfonamide] |  | 2740 | 89.7 | > 16300 | 361 | 79.5 |
| COc1cc2c(NS(=O)(=O)c3c(OC)cccc3OC3CC3)noc2cc1Nc1cc[nH]n1 [Example 34, 2-(cyclopropyloxy)-6-methoxy-N-{5-methoxy-6-[(1H-pyrazol-3-yl)amino]-1,2-benzoxazol-3-yl}benzene-1-sulfonamide] | 0.4 | 365 | 11.2 | 1240 | 51.8 |  |
| COC(=O)c1cc(Nc2cc3onc(NS(=O)(=O)c4c(OC)cccc4OC)c3cc2OC)[nH]n1 [Example 55, methyl 5-({3-[(2,6-dimethoxybenzene-1-sulfonyl)amino]-5-methoxy-1,2-benzoxazol-6-yl}amino)-1H-pyrazole-3-carboxylate] | 2.4 |  | 199 |  | 663 | 147 |
| COc1cccc(OC)c1S(=O)(=O)Nc1noc2cc(Nc3cc(C4CC4)n[nH]3)c(F)c(OC)c12 [Example 71, N-{6-[(3-cyclopropyl-1H-pyrazol-5-yl)amino]-5-fluoro-4-methoxy-1,2-benzoxazol-3-yl}-2,6-dimethoxybenzene-1-sulfonamide] | 2.6 | 591 | 2.2 | 4050 | 20.9 |  |
| CCc1cc(Nc2cc3onc(NS(=O)(=O)c4c(OC)cccc4OC)c3c(OC)c2F)[nH]n1 [Example 72, N-{6-[(3-ethyl-1H-pyrazol-5-yl)amino]-5-fluoro-4-methoxy-1,2-benzoxazol-3-yl}-2,6-dimethoxybenzene-1-sulfonamide] | 4.6 | 1010 | 1.1 | > 6970 | 21.5 |  |
| COc1cc2c(NS(=O)(=O)c3c(OC)cccc3OC)noc2cc1Nc1cc(Cc2ccccc2)n[nH]1 [Example 109, N-{6-[(3-benzyl-1H-pyrazol-5-yl)amino]-5-methoxy-1,2-benzoxazol-3-yl}-2,6-dimethoxybenzene-1-sulfonamide] | 0.8 | 326 | 5 | 2930 | 18.5 |  |
| COc1cc2c(NS(=O)(=O)c3c(OC)cccc3OC)noc2cc1Nc1cc(CC(C)C)n[nH]1 [Example 114, 2,6-dimethoxy-N-(5-methoxy-6-{[3-(2-methylpropyl)-1H-pyrazol-5-yl]amino}-1,2-benzoxazol-3-yl)benzene-1-sulfonamide] | 1.3 | 312 | 2.1 | 3360 | 22 |  |
| COc1cc2c(NS(=O)(=O)c3c(OC)cc(-c4cscn4)cc3OC)noc2cc1Nc1cc(C2CC2)n[nH]1 [Example 121, N-{6-[(3-cyclopropyl-1H-pyrazol-5-yl)amino]-5-methoxy-1,2-benzoxazol-3-yl}-2,6-dimethoxy-4-(1,3-thiazol-4-yl)benzene-1-sulfonamide] | 0.7 | 106 | 2.1 | 1120 | 8.9 |  |
| COc1cc2c(NS(=O)(=O)c3c(OC)cc(-c4ccn(C)n4)cc3OC)noc2cc1Nc1cc(C2CC2)n[nH]1 [Example 122, N-{6-[(3-cyclopropyl-1H-pyrazol-5-yl)amino]-5-methoxy-1,2-benzoxazol-3-yl}-2,6-dimethoxy-4-(1-methyl-1H-pyrazol-3-yl)benzene-1-sulfonamide] | 0.3 | 45.3 | 1.2 | 395 | 3 |  |
| COc1cc2c(NS(=O)(=O)c3c(OC)cc(CN4CC[C@@H](F)C4)cc3OC)noc2cc1Nc1cc(C2CC2)n[nH]1 [Example 201, N-{6-[(3-cyclopropyl-1H-pyrazol-5-yl)amino]-5-methoxy-1,2-benzoxazol-3-yl}-4-{[(3R)-3-fluoropyrrolidin-1-yl]methyl}-2,6-dimethoxybenzene-1-sulfonamide] | 0.6 | 192 | 3.4 | 2190 | 4.1 |  |
| COc1cc2c(NS(=O)(=O)c3c(OC)cc(CN4CC(F)(F)C4)cc3OC)noc2cc1Nc1cc(C2CC2)n[nH]1 [Example 203, N-{6-[(3-cyclopropyl-1H-pyrazol-5-yl)amino]-5-methoxy-1,2-benzoxazol-3-yl}-4-[(3,3-difluoroazetidin-1-yl)methyl]-2,6-dimethoxybenzene-1-sulfonamide] | 0.4 | 21.7 | 3 | 1220 | 4.3 |  |
| COc1cc2c(NS(=O)(=O)c3c(OC)cc(-c4nccc(CN(C)C)n4)cc3OC)noc2cc1Nc1cc(C2CC2)n[nH]1 [Example 222, N-{6-[(3-cyclopropyl-1 H-pyrazol-5-yl)amino]-5-methoxy-1,2-benzoxazol-3-yl}-4-{4-[(dimethylamino)methyl]pyrimidin-2-yl}-2,6-dimethoxybenzene-1-sulfonamide] | 0.5 | 27.9 | 4 | 958 | 4.5 |  |
| COc1cc2c(NS(=O)(=O)c3c(OC)cc(-c4ncc(N5CCN(C)CC5)cn4)cc3OC)noc2cc1Nc1cc(C2CC2)n[nH]1 [Example 226, N-{6-[(3-cyclopropyl-1 H-pyrazol-5-yl)amino]-5-methoxy-1,2-benzoxazol-3-yl}-2,6-dimethoxy-4-[5-(4-methylpiperazin-1-yl)pyrimidin-2-yl]benzene-1-sulfonamide] | 0.3 | 11.6 | 2.4 | 572 | 3 |  |
